Values joined by “and” are separate entries in the source; they are usually repeats but may differ in a detail not shown here. Identical values can stand only once.
Test system: 889142-216-R-J1-PDC complex spheroid viability
Experiment: Anticancer human tumor 889142-216-R-J1-PDC patient-derived bladder carcinoma cell line growth inhibition [POLQ]
Conditions: for viability, T/C: stronger effect = lower value; active means viability on the fitted dose curve at most 10% of control; inactive means the rest
Method: Multicellular complex tumor spheroid response to Polymerase (POL) inhibitors (novobiocin, ART-558, RP6685) in combination with a variety of drugs and investigational agents in selected tumor cell lines
The POL inhibitors (novobiocin, ART-558, and RP6685) were evaluated both individually and in combination with standard of care and investigational anticancer small molecules within a complex spheroid model of solid tumors. . Complex spheroids include a stromal component modeled by human endothelial cells (HUVEC) and fibroblasts modeled by human mesenchymal stem cells (MSCs). The concentration ranges selected for each drug and investigational agent were based upon clinically achievable concentrations if the clinical Cmax of the agent was known.
Compounds. The drugs and investigational agents: novobiocin (NSC847541), ART-558 (NSC835418), RP-6685 (NSC848927), peposertib (NSC802822), ceralasertib (NSC780249), elimusertib (NSC800525), camonsertib (NSC841442), AZD-1390 (NSC803789), olaparib (NSC753686), talazoparib (NSC767125), rucaparib (NSC756644), sotorasib (NSC818433), MRTX-1133 (NSC836407), SN-38 (NSC673596), topotecan (NSC609699), epotoside (NSC141540), doxorubicin (NSC123127), gemcitabine (NSC613327), 5-fluorouracil (NSC19893), paclitaxel (NSC125973), vemurafenib (NSC761431), MSA-2 (NSC828583), SN-011 (NSC837082), adavosertib (NSC754352), prexasertib (NSC758257), carboplatin (NSC241240) and oxaliplatin (NSC266046), were obtained from the National Cancer Institute (NCI) Developmental Therapeutics Program Chemical Repository (21). The FDA-approved anticancer drug set is available from the Developmental Therapeutics Program at https://dtp.cancer.gov/organization/dscb/obtaining/. […] The stock solutions were prepared in dimethyl sulfoxide (DMSO, Sigma-Aldrich, St. Louis, MO, cat. D2650), except for the platinum compounds which were prepared in saline (Quality Biological, Gaithersburg, MD, cat. 114-055-101), at 800-fold the tested concentration and stored at -70 degrees C prior to their use. All drugs and investigational agents were tested over a range starting from a high concentration at or near the clinical Cmax and decreasing in half-log increments. If the clinical Cmax for an agent had not been determined, the highest concentration tested was 10 microM, except for SN-38, which was tested at a high concentration of 1 microM.
Cell Culture. All cells were maintained in an incubator at 37 degrees C and 5% CO2 with 95% humidity. The PDC lines were cultured according to standard operating procedures established by the NCI PDMR (https://pdmr.cancer.gov). Table 3 of the manuscript, lists the cell lines along with the number of the three cell types plated to form the mct-spheroids and media for tumor cell growth. After thawing, all PDC lines, except 997537-175-T-J1-PDC and 415267-285-R-J2-PDC, were cultured in Matrigel-coated flasks prepared with a working solution of 1X Ham's F-12 nutrient mix, without supplementation (Thermo Fisher Scientific, cat. 11765054), 100 U/mL penicillin-streptomycin (Thermo Fisher Scientific, cat. 15140122), and 2.5% Matrigel (Corning Inc., Corning, NY, cat. 354248) for the first three passages. The two PDC lines 997537-175-T-J1-PDC and 415267-285-R-J2-PDC were cultured on uncoated flasks. The 857933-349-R-J2-PDC line was cultured in 6C/Colon 1B media containing advanced DMEM/F-12 (Thermo Fisher Scientific, cat. 12634028), 10 mM HEPES (Thermo Fisher Scientific, cat. 15630080), 1X GlutaMAX supplement (Thermo Fisher Scientific, cat. 35050061), 0.1 mg/mL primocin (InvivoGen, San Diego, CA, cat. ant-pm-2), 10% defined fetal bovine serum, heat inactivated (HyClone Laboratories Inc., Logan, UT, cat. SH30070.03HI), 50% L-WRN conditioned media (ATCC, cat. CRL-3276), 1.25 mM N-Acetyl-L-cysteine (Sigma-Aldrich, cat. A9165), 10 mM nicotinamide (Sigma-Aldrich, cat. N0636), 1X B-27 supplement (Thermo Fisher Scientific, cat. 17504044), 1X N-2 supplement (Thermo Fisher Scientific, cat. […]
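Further: spheroids exposed to compounds for seven days.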

COc1cc2cc(C(=O)CCC(=O)O)sc2cc1OC + COC1C(OC(N)=O)C(O)C(Oc2ccc3c(O)c(NC(=O)c4ccc(O)c(CC=C(C)C)c4)c(=O)oc3c2C)OC1(C)C
> 10 µM: IC50 (curve of first compound, second compound 0.0316 µM) | IC50 (curve of first compound, second compound 0.1 µM) | IC50 (curve of first compound, second compound 0.316 µM) | IC50 (curve of first compound, second compound 1 µM) | IC50 (curve of first compound, second compound 3.16 µM) | IC50 (curve of first compound, second compound 10 µM)
inactive: viability, T/C (second compound 0.0316 µM, first compound 0.0316 µM) 95.1% | viability, T/C (second compound 0.0316 µM, first compound 0.1 µM) 93% | viability, T/C (second compound 0.0316 µM, first compound 0.316 µM) 82.4% | viability, T/C (second compound 0.0316 µM, first compound 1 µM) 114% | viability, T/C (second compound 0.0316 µM, first compound 3.16 µM) 109% | viability, T/C (second compound 0.0316 µM, first compound 10 µM) 70% | viability, T/C (second compound 0.1 µM, first compound 0.0316 µM) 103% | viability, T/C (second compound 0.1 µM, first compound 0.1 µM) 106% | viability, T/C (second compound 0.1 µM, first compound 0.316 µM) 102% | viability, T/C (second compound 0.1 µM, first compound 1 µM) 96.9% | viability, T/C (second compound 0.1 µM, first compound 3.16 µM) 92.5% | viability, T/C (second compound 0.1 µM, first compound 10 µM) 81.1% | viability, T/C (second compound 0.316 µM, first compound 0.0316 µM) 118% | viability, T/C (second compound 0.316 µM, first compound 0.1 µM) 120% | viability, T/C (second compound 0.316 µM, first compound 0.316 µM) 116% | viability, T/C (second compound 0.316 µM, first compound 1 µM) 90.6% | viability, T/C (second compound 0.316 µM, first compound 3.16 µM) 110% | viability, T/C (second compound 0.316 µM, first compound 10 µM) 83.6% | viability, T/C (second compound 1 µM, first compound 0.0316 µM) 113% | viability, T/C (second compound 1 µM, first compound 0.1 µM) 106% | viability, T/C (second compound 1 µM, first compound 0.316 µM) 121% | viability, T/C (second compound 1 µM, first compound 1 µM) 113% | viability, T/C (second compound 1 µM, first compound 3.16 µM) 118% | viability, T/C (second compound 1 µM, first compound 10 µM) 83.9% | viability, T/C (second compound 3.16 µM, first compound 0.0316 µM) 91.2% | viability, T/C (second compound 3.16 µM, first compound 0.1 µM) 113% | viability, T/C (second compound 3.16 µM, first compound 0.316 µM) 103% | viability, T/C (second compound 3.16 µM, first compound 1 µM) 102% | viability, T/C (second compound 3.16 µM, first compound 3.16 µM) 111% | viability, T/C (second compound 3.16 µM, first compound 10 µM) 101% | viability, T/C (second compound 10 µM, first compound 0.0316 µM) 103% | viability, T/C (second compound 10 µM, first compound 0.1 µM) 93.2% | viability, T/C (second compound 10 µM, first compound 0.316 µM) 111% | viability, T/C (second compound 10 µM, first compound 1 µM) 92.8% | viability, T/C (second compound 10 µM, first compound 3.16 µM) 103% | viability, T/C (second compound 10 µM, first compound 10 µM) 88.2%

O=C(c1cc(Cc2n[nH]c(=O)c3ccccc23)ccc1F)N1CCN(C(=O)C2CC2)CC1
inactive: viability, T/C (compound 0.0316 µM) 99.2% and 94.9% and 95.6% | viability, T/C (compound 0.1 µM) 83.3% and 99.5% and 98.7% | viability, T/C (compound 0.316 µM) 101% and 83.8% and 88.6% | viability, T/C (compound 1 µM) 81.2% and 111% and 91.4% | viability, T/C (compound 3.16 µM) 83.2% and 97.8% and 72.5% | viability, T/C (compound 10 µM) 60.4% and 69.9% and 69%
> 10 µM: IC50 (curve of compound)

O=c1[nH]cc(F)c(=O)[nH]1
inactive: viability, T/C (compound 0.0316 µM) 97% and 89.8% and 113% | viability, T/C (compound 0.1 µM) 93.8% and 95.1% and 88.7% | viability, T/C (compound 0.316 µM) 106% and 83.7% and 94.8% | viability, T/C (compound 1 µM) 94.5% and 79.1% and 72.9% | viability, T/C (compound 3.16 µM) 76.2% and 61.7% and 80.9% | viability, T/C (compound 10 µM) 67.3% and 59.5% and 77.3%
> 10 µM: IC50 (curve of compound)

Source: PubChem BioAssay AID1963831 (Molecular Pharmacology Branch, DTP, NCI, 2024)
